Columns and labels:
male ICR mice = assay: Toxicity test: oral administration to mice, survival and LD50; type: in vivo; conditions: for Number of living mice: among 10 head, observation after two weeks; for LD₅₀ values: oral, mice, in words, compared with the known absorption accelerator
Description: A known absorption accelerator, N-(α-fluoro-4-methylcinnamoyl)-L-phenylalanine, and the two absorption accelerators of this invention were each suspended in 0.5% solution of CMC sodium salt at different concentrations, each suspension was orally administered to male ICR mice of 4-week age ( each group consisting of 10 head ), and LD₅₀ values were measured based on the observations after two weeks. The result is summarized in Table 2, in which the figures show the number of living mice when 1.0 g/Kg and 3.0 g/Kg of the compounds were administered.

[1] = Activity test using mice: oral insulin co-administered with absorption accelerator, blood glucose and blood insulin measured; type: in vivo, female ICR-CDI mice; conditions: insulin 0.5 U/10 g + absorption accelerator 3 mg/10 g, vs control group
Description: Each of the absorption accelerators prepared above was suspended in 0.5% CMC/0.05M Tris-HCl buffer ( pH 7.8 ), insulin was admixed to this suspension, and the resulting mixture was orally administered to a group of female ICR-CDI mice ( five head of 5- to 7-week age ) fasted for 18 hours ( insulin: 0.5 U/10 g, absorption accelerator: 3 mg/10 g ). The rate of reduction in blood glucose (%) and the factor of increase in the insuline level in the blood, in comparison with the data of the control group, were measured at definite intervals.

[2] = Activity test using dogs: oral gelatin capsules of insulin plus absorption accelerator, serum glucose measured; type: in vivo, male beagles; conditions: 50 U/Kg insulin + 25 mg/Kg sodium salt of absorption accelerator, average of two dogs, compared with N-(α-fluoro-4-methylcinnamoyl)-L-phenylalanine
Description: An absorption acceleration test was conducted using dogs to compare the absorption accelerators of this invention with a known absorption accelerator, N-(α-fluoro-4-methylcinnamoyl)-L-phenylalanine.
Gelatin capsules containing 50 U/Kg insulin and 25 mg/Kg sodium salt of absorption accelerator were orally administered to male beagles of 6- to 8-month age fasted for 18 hours. In this test, the same two dogs were used for each of test samples.
A blood sample was taken from each dog at definite intervals from the peripheral vein in a paw, the amount of glucose in the serum was measured, and the average of two head was calculated. The result is sumarized in the figure.

SMILES | Number of living mice (male ICR mice; 1.0 g/Kg oral) | Number of living mice (male ICR mice; 3.0 g/Kg oral) | LD₅₀ values (male ICR mice) | Factor of increase in blood-insulin level ([1]; 15 minutes) | Rate of reduction in blood glucose level ([1]; 15 minutes) | Factor of increase in blood-insulin level ([1]; 30 minutes) | Rate of reduction in blood glucose level ([1]; 30 minutes) | Rate of reduction in blood glucose level ([1]; 60 minutes) | effect of reducing the glucose level in the serum [2] | Factor of increase in blood-insulin level ([1]; 60 minutes, "-" = no increase in blood insulin level was observed)
Cc1ccc(C=C(F)C(=O)N[C@@H](Cc2ccccc2)C(=O)O)cc1 [N-(α-fluoro-4-methylcinnamoyl)-L-phenylalanine, reference compound] | 10 | 6 | – | – | – | – | – | – | – | –
Cc1ccc(C(Cl)=CC(=O)N[C@H](Cc2ccccc2)C(=O)O)cc1 [N-(β-chloro-4-methylcinnamoyl)-D-phenylalanine] | 10 | 6 | equal to, or higher than, that of the known absorption accelerator | 2) 2.1 | 1) 35.7% | 2) 3.3 | 1) 47.8% | 1) 42.8% | far higher effect of reducing the glucose level in the serum over longer periods | –
Cc1ccc(C(Cl)=CC(=O)N[C@@H](Cc2ccccc2)C(=O)O)cc1 [N-(β-chloro-4-methylcinnamoyl)-L-phenylalanine] | 10 | 10 | equal to, or higher than, that of the known absorption accelerator | 2) 10.5 | 1) 42.1% | 2) 2.0 | 1) 21.6% | 1) 12.2% | far higher effect of reducing the glucose level in the serum over longer periods | 2) 2.1
